Reference: PubChem BioAssay (NCI)
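Step 1: Grow cells in 96-well plates. Step 2: Expose to compound for 48 hours at 5 concentrations. Step 3: Interpolate endpoints linearly; if unreached, use highest concentration. The concentration for full growth arrest is given as TGI.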

What was measured:
Assay in all cases: DTP human tumour cell line panel, 48 h
A498 renal = system: A498 renal
A549 NSCLC = system: A549 NSCLC
ACHN renal = system: ACHN renal
CCRF-CEM leukemia = system: CCRF-CEM leukemia
DMS 114 small cell lung = system: DMS 114 small cell lung
DMS 273 small cell lung = system: DMS 273 small cell lung
EKVX NSCLC = system: EKVX NSCLC
HCT-116 colon = system: HCT-116 colon
HL-60(TB) leukemia = system: HL-60(TB) leukemia
HOP-62 NSCLC = system: HOP-62 NSCLC
HOP-92 NSCLC = system: HOP-92 NSCLC
HT29 colon = system: HT29 colon
IGROV1 ovarian = system: IGROV1 ovarian
K-562 leukemia = system: K-562 leukemia
KM12 colon = system: KM12 colon
M14 melanoma = system: M14 melanoma
M19-MEL melanoma = system: M19-MEL melanoma
MOLT-4 leukemia = system: MOLT-4 leukemia
NCI-H23 lung = system: NCI-H23 lung
NCI-H460 lung = system: NCI-H460 lung
NCI-H522 lung = system: NCI-H522 lung
OVCAR-5 ovarian = system: OVCAR-5 ovarian
OVCAR-8 ovarian = system: OVCAR-8 ovarian
RXF 393 renal = system: RXF 393 renal
RXF-631 renal = system: RXF-631 renal
SF-268 CNS = system: SF-268 CNS
SF-295 CNS = system: SF-295 CNS
SK-MEL-28 melanoma = system: SK-MEL-28 melanoma
SK-OV-3 ovarian = system: SK-OV-3 ovarian
SNB-19 CNS = system: SNB-19 CNS
SR leukemia = system: SR leukemia
TK-10 renal = system: TK-10 renal
U251 CNS = system: U251 CNS
UACC-257 melanoma = system: UACC-257 melanoma
UACC-62 melanoma = system: UACC-62 melanoma
UO-31 renal = system: UO-31 renal
786-0 renal = system: 786-0 renal
COLO 205 colon = system: COLO 205 colon
DLD-1 colon = system: DLD-1 colon
HCC-2998 colon = system: HCC-2998 colon
HCT-15 colon = system: HCT-15 colon
HOP-18 NSCLC = system: HOP-18 NSCLC
LXFL 529 NSCLC = system: LXFL 529 NSCLC
MALME-3M melanoma = system: MALME-3M melanoma
NCI-H226 lung = system: NCI-H226 lung
OVCAR-3 ovarian = system: OVCAR-3 ovarian
RPMI-8226 leukemia = system: RPMI-8226 leukemia
SF-539 CNS = system: SF-539 CNS
SK-MEL-2 melanoma = system: SK-MEL-2 melanoma
SK-MEL-5 melanoma = system: SK-MEL-5 melanoma
SN12C renal = system: SN12C renal
SW-620 colon = system: SW-620 colon
XF 498 CNS = system: XF 498 CNS

Measured: TGI

c1ccc(-c2nc3sccn3n2)cc1
not listed: 786-0 renal | COLO 205 colon | DLD-1 colon | HCC-2998 colon | HCT-15 colon | HOP-18 NSCLC | LXFL 529 NSCLC | MALME-3M melanoma | NCI-H226 lung | OVCAR-3 ovarian | RPMI-8226 leukemia | SF-539 CNS | SK-MEL-2 melanoma | SK-MEL-5 melanoma | SN12C renal | SW-620 colon | XF 498 CNS
> 100 µM: all other assays above

C[C@]12CCC3[C@@H](C[C@H]4OC(=O)[C@@]35CCC(=O)C=C45)C1CCC2=O (stereo partly drawn)
not listed: A498 renal | DMS 273 small cell lung | HCT-116 colon | HOP-62 NSCLC | RXF-631 renal | UACC-62 melanoma
> 100 µM: all other assays above
